Laboratory results published in paper PMC12409883 (Journal of Medicinal Chemistry, 2025).

What was measured:
[1] = tested on: visual chromophore regeneration in BALB/cJ mice; experiment: Extent and duration of effects on visual chromophore recovery after photobleach; conditions: 10 mg/kg single IP, photobleach 30 min after dose, 2 h dark recovery
[2] = biological target: RPE65 (Bos taurus, UniProt Q28175); experiment: In vitro RPE65 activity assay; conditions: for IC50: IC50 toward RPE65, bovine RPE microsomes
Chain of RPE65 (Q28175 whole entry): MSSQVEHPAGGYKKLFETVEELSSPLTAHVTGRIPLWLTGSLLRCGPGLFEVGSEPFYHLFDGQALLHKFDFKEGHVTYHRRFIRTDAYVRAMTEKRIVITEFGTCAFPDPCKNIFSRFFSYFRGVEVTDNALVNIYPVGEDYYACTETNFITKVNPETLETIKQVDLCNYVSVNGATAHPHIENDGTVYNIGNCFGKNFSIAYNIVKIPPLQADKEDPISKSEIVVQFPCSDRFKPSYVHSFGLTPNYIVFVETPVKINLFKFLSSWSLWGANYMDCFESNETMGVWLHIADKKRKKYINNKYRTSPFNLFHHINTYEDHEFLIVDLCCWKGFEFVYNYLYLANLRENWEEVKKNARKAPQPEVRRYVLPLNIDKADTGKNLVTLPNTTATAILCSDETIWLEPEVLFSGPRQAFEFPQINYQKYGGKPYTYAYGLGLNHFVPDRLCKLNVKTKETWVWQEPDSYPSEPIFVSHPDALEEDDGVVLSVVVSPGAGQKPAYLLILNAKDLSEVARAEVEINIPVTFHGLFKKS

[3] = Shelf life of ester-based VCMs; type: physicochemical; conditions: Figure S1
[4] = tested on: porcine liver esterase; experiment: In vitro esterase susceptibility assay; conditions: for initial rate of VCM loss: 37 °C, followed for 60 min
[5] = tested on: BALB/cJ mice; experiment: Light-induced retinal damage in BALB/cJ mice: SLO and OCT imaging; type: in vivo, mouse
[6] = tested on: BALBc/J mice; experiment: In vivo scotopic ERG 2 h after photobleach, oral gavage dosing; set-up: species or system mouse; conditions: 10 mg/kg oral gavage, photobleach after 30 min, 2 h in the dark
[7] = tested on: BALB/cJ mice; experiment: Light-induced retinal damage in BALB/cJ mice: histology, ONL nuclei counts; conditions: 10 mg/kg single IP, 15,000 lx for 8 h, p < 0.0001
[8] = tested on: Abca4–/–Rdh8–/– mice; experiment: Photic retinal damage in Abca4–/–Rdh8–/– mice; type: in vivo, mouse
[9] = tested on: Abca4–/–Rdh8–/– mice; experiment: Photic retinal damage in Abca4–/–Rdh8–/– mice: photopic ERG; type: in vivo, mouse; conditions: IP and oral administration, 1 week after light damage
[10] = tested on: Abca4–/–Rdh8–/– mice; experiment: Photic retinal damage in Abca4–/–Rdh8–/– mice: scotopic; type: in vivo, mouse; conditions: 1 week after light damage
[11] = 10 mg/kg single IP, 15,000 lx for 8 h, assessed after 7 days

NCCC(O)c1cccc(O)c1 (stereo not shown) [Compound 4, 3-(3-Amino-1-hydroxypropyl)phenol]
ocular retinoid pattern (atREs and 11cRAL) after photobleach [1]: led to the same pattern as vehicle treatment
RPE65 inhibition in vitro ([2]; bovine RPE microsomes): did not significantly inhibit RPE65

NCCC(O)c1cccc(OC(=O)C2CCCCC2)c1.O=CO (stereo not shown) [Compound 5, 3-(3-Amino-1-hydroxypropyl)phenyl cyclohexanecarboxylate formate]
ocular retinoid pattern (atREs and 11cRAL) after photobleach [1]: led to the same pattern as vehicle treatment
stability to nonenzymatic aminolysis [3]: substantially less stable compared to 6 and 7
IC50 [2]: 0.164 ± 0.027 µM
initial rate of VCM loss [4]: 5.611 % compound/min

CCC(CC)C(=O)Oc1cccc(C(O)CCN)c1.O=CO (stereo not shown) [Compound 6, 3-(3-Amino-1-hydroxypropyl)phenyl 2-ethylbutanoate formate]
ocular retinoid pattern (atREs and 11cRAL) after photobleach [1]: reproduced the retinoid pattern observed after emixustat treatment
OCT: ONL thickness [5, 11]: preserved the thickness of the ONL
SLO retinal autofluorescent puncta [5, 11]: rare autofluorescent puncta
efficacy of a single systemic administration in the prevention of photic retinal damage ([5]; 10 mg/kg single IP, albino BALB/cJ mice): equal to that of emixustat
IC50 [2]: 0.069 ± 0.015 µM
slower initial rate of hydrolysis compared with compound 5 [4]: ~4 fold
initial rate of VCM loss [4]: 1.512 % compound/min
scotopic ERG a-wave after oral dosing [6]: suppressed significantly the scotopic ERG a-wave
scotopic ERG b-wave after oral dosing [6]: only 7 suppressed also the b-wave amplitude
Spider plot of ONL thickness from H&E sections, ANOVA [7]: significant effect

CCCC(CCC)C(=O)Oc1cccc(C(O)CCN)c1.O=CO (stereo not shown) [Compound 7, 3-(3-Amino-1-hydroxypropyl)phenyl 2-propylpentanoate formate]
ocular retinoid pattern (atREs and 11cRAL) after photobleach [1]: reproduced the retinoid pattern observed after emixustat treatment
OCT: ONL, oral ([8]; oral 10, 20, 50 mg/kg, 10,000 lx for 30 min, assessed after 1 week): dose-dependent preservation of the ONL layer
SLO autofluorescent signals, oral ([8]; oral 10, 20 and 50 mg/kg, 10,000 lx for 30 min, assessed after 1 week): did not afford complete protection
oral dose from which the effect on ONL thickness was significant ([8]; oral administration, OCT ONL thickness): ≥ 20 mg/kg
OCT: ONL, IP ([8]; single IP dose, 10,000 lx for 30 min, assessed after 1 week): the ONL remained intact
S-cone and M-cone b-wave amplitudes [9]: A similar trend was observed
IC50 [2]: 0.102 ± 0.012 µM
rod ERG responses, IP ([10]; IP administration): had a significant effect in maintaining rod function
rod ERG b-wave amplitudes, oral ([10]; oral 10, 20, 50 mg/kg): dose-dependent preservation of rod ERG b-wave amplitudes
slower initial rate of hydrolysis compared with compound 5 [4]: ~13 fold
initial rate of VCM loss [4]: 0.440 % compound/min
scotopic ERG a-wave after oral dosing [6]: suppressed significantly the scotopic ERG a-wave
